Source: patent publication US20140094424A1, “MICROBICIDAL COMPOSITIONS AND METHODS OF PRODUCTION USE THEREOF” (priority 2011, published 2014)

How the values were obtained:
[1] = tested on: Pseudomonas aeruginosa (AY); assay: MBC (minimum bactericidal concentration) test in Wash NEXT reagent; assay type: cell-based
[2] = tested on: Gram positive rods (S); assay: as above; assay type: cell-based

gentamicin
MBC test growth score ([1]; 10% preservative, 8 hour): +/−
MBC test growth score ([1]; 10% preservative, 24 hour): −
MBC test growth score ([1]; 10% preservative, 48 hour): −
MBC test growth score ([1]; 10% preservative, 72 hour): −
MBC test growth score ([1]; 20% preservative, 8 hour): +/−
MBC test growth score ([1]; 20% preservative, 24 hour): −
MBC test growth score ([1]; 20% preservative, 48 hour): −
MBC test growth score ([1]; 20% preservative, 72 hour): −
MBC test growth score ([1]; 30% preservative, 8 hour): −
MBC test growth score ([1]; 30% preservative, 24 hour): −
MBC test growth score ([1]; 30% preservative, 48 hour): −
MBC test growth score ([1]; 30% preservative, 72 hour): −
MBC test growth score ([1]; 40% preservative, 8 hour): −
MBC test growth score ([1]; 40% preservative, 24 hour): −
MBC test growth score ([1]; 40% preservative, 48 hour): −
MBC test growth score ([1]; 40% preservative, 72 hour): −
MBC test growth score ([1]; 50% preservative, 8 hour): −
MBC test growth score ([1]; 50% preservative, 24 hour): −
MBC test growth score ([1]; 50% preservative, 48 hour): −
MBC test growth score ([1]; 50% preservative, 72 hour): −
MBC test growth score ([1]; 60% preservative, 8 hour): −
MBC test growth score ([1]; 60% preservative, 24 hour): −
MBC test growth score ([1]; 60% preservative, 48 hour): −
MBC test growth score ([1]; 60% preservative, 72 hour): −
MBC test growth score ([1]; 70% preservative, 8 hour): −
MBC test growth score ([1]; 70% preservative, 24 hour): −
MBC test growth score ([1]; 70% preservative, 48 hour): −
MBC test growth score ([1]; 70% preservative, 72 hour): −
MBC test growth score ([1]; 80% preservative, 8 hour): −
MBC test growth score ([1]; 80% preservative, 24 hour): −
MBC test growth score ([1]; 80% preservative, 48 hour): −
MBC test growth score ([1]; 80% preservative, 72 hour): −
MBC test growth score ([1]; 90% preservative, 8 hour): −
MBC test growth score ([1]; 90% preservative, 24 hour): −
MBC test growth score ([1]; 90% preservative, 48 hour): −
MBC test growth score ([1]; 90% preservative, 72 hour): −
MBC test growth score ([1]; 100% preservative, 8 hour): −
MBC test growth score ([1]; 100% preservative, 24 hour): −
MBC test growth score ([1]; 100% preservative, 48 hour): −
MBC test growth score ([1]; 100% preservative, 72 hour): −
MBC test growth score ([2]; 10% preservative, 8 hour): −
MBC test growth score ([2]; 10% preservative, 24 hour): −
MBC test growth score ([2]; 10% preservative, 48 hour): −
MBC test growth score ([2]; 10% preservative, 72 hour): −
MBC test growth score ([2]; 20% preservative, 8 hour): −
MBC test growth score ([2]; 20% preservative, 24 hour): −
MBC test growth score ([2]; 20% preservative, 48 hour): −
MBC test growth score ([2]; 20% preservative, 72 hour): −
MBC test growth score ([2]; 30% preservative, 8 hour): −
MBC test growth score ([2]; 30% preservative, 24 hour): −
MBC test growth score ([2]; 30% preservative, 48 hour): −
MBC test growth score ([2]; 30% preservative, 72 hour): −
MBC test growth score ([2]; 40% preservative, 8 hour): −
MBC test growth score ([2]; 40% preservative, 24 hour): −
MBC test growth score ([2]; 40% preservative, 48 hour): −
MBC test growth score ([2]; 40% preservative, 72 hour): −
MBC test growth score ([2]; 50% preservative, 8 hour): −
MBC test growth score ([2]; 50% preservative, 24 hour): −
MBC test growth score ([2]; 50% preservative, 48 hour): −
MBC test growth score ([2]; 50% preservative, 72 hour): −
MBC test growth score ([2]; 60% preservative, 8 hour): −
MBC test growth score ([2]; 60% preservative, 24 hour): −
MBC test growth score ([2]; 60% preservative, 48 hour): −
MBC test growth score ([2]; 60% preservative, 72 hour): −
MBC test growth score ([2]; 70% preservative, 8 hour): −
MBC test growth score ([2]; 70% preservative, 24 hour): −
MBC test growth score ([2]; 70% preservative, 48 hour): −
MBC test growth score ([2]; 70% preservative, 72 hour): −
MBC test growth score ([2]; 80% preservative, 8 hour): −
MBC test growth score ([2]; 80% preservative, 24 hour): −
MBC test growth score ([2]; 80% preservative, 48 hour): −
MBC test growth score ([2]; 80% preservative, 72 hour): −
MBC test growth score ([2]; 90% preservative, 8 hour): −
MBC test growth score ([2]; 90% preservative, 24 hour): −
MBC test growth score ([2]; 90% preservative, 48 hour): −
MBC test growth score ([2]; 90% preservative, 72 hour): −
MBC test growth score ([2]; 100% preservative, 8 hour): −
MBC test growth score ([2]; 100% preservative, 24 hour): −
MBC test growth score ([2]; 100% preservative, 48 hour): −
MBC test growth score ([2]; 100% preservative, 72 hour): −
